Key:
[1] = system: wildtype Wnt signaling cascade; test: HEK293 TOP assay (Super TopFlash luciferase reporter, Wnt-3a stimulated); type: cell-based; details: Homo sapiens, HEK293, 16 h, HEK293 TOP reporter cells, Wnt3a at EC50, 16 hours
How it was run: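 HEK293 cells stably carrying Super TopFlash (TOP) run in parallel with FOP cells, 10000/well plated 24 h ahead, stimulated with recombinant human Wnt-3a. Compounds tested 50 μM to 15 nM in 3.16-fold steps in CAFTY buffer pH 7.4 with 2 mM Ca^2+ and 0.01% BSA; luciferase read-out.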

[2] = system: HEK293 cells cotransfected with the FOP control vector; test: HEK293 FOP assay (control reporter with non-functional TCF elements); type: cell-based; details: Homo sapiens, 16 hours
How it was run: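 Stable HEK293 line carrying FOP control reporter (randomized non-functional TCF sites, with pcDNA3), Geneticin-selected, plated 24 h before assay. Stimulated with recombinant human Wnt-3a (2500-5 ng/ml) and compounds 50 μM–15 nM (3.16-fold steps) in CAFTY buffer pH 7.4 with 2 mM Ca2+, 0.01% BSA, run parallel to TOP line.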

[3] = biological target: T1, TNKS2 (Homo sapiens, UniProt Q9H2K2); test: TNKS2 Assay B (auto-parsylation, [3H]-NAD+ SPA); type: biochemical; details: 6 nM TNKS2, auto-parsylation, over night at room temperature
T1 construct: purchased BPS Bioscience, San Diego, USA 80572 (TNKS2 Histone Ribosylation Assay Kit)
T1 sequence (Q9H2K2 1-1166): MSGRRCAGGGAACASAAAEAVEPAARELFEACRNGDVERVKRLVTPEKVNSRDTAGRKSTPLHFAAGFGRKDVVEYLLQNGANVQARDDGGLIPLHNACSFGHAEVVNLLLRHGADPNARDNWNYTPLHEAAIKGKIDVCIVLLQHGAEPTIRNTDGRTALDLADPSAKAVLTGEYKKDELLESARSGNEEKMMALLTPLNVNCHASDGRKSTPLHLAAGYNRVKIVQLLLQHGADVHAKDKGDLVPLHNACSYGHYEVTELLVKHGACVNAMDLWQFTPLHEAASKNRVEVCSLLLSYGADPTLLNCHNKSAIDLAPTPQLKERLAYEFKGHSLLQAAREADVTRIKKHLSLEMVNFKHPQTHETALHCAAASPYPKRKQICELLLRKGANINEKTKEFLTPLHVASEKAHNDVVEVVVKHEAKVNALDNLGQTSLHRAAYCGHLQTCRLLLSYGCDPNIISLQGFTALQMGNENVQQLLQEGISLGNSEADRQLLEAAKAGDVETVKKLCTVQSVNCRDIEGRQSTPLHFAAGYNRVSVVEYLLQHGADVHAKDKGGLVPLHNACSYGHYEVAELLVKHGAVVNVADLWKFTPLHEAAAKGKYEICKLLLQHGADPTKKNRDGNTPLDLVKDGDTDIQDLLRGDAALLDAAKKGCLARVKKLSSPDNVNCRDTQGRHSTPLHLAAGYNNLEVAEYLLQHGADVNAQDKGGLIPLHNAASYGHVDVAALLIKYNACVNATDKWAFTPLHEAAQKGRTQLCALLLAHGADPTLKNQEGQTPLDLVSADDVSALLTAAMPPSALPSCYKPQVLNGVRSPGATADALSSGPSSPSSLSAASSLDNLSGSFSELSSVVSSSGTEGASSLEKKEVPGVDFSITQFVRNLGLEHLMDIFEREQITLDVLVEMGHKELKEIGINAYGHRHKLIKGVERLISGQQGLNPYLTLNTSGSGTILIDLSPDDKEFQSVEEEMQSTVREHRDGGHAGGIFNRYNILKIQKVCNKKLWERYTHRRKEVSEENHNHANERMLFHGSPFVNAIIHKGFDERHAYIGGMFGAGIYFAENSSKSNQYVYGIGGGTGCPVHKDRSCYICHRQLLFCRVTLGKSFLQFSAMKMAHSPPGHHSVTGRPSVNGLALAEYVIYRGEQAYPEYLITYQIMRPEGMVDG

For `Cc1ccccc1N(C)C(=O)[C@H]1CC[C@H](NC(=O)c2cnn3cccnc23)CC1` [Example 178, N-{trans-4-[methyl(2-methylphenyl)carbamoyl]cyclohexyl}pyrazolo[1,5-a]pyrimidine-3-carboxamide], the IC50 [1] was 0.56 µM, the IC50 [2] was ≥ 50 µM and the IC50 [3] was 0.23 µM.
For `C[C@]1(C(=O)Nc2ccc(F)cc2Cl)CC[C@H](NC(=O)c2cnn3cccnc23)CC1` [Example 179, N-{trans-4-[(2-chloro-4-fluorophenyl)carbamoyl]-4-methylcyclohexyl}pyrazolo[1,5-a]pyrimidine-3-carboxamide], the IC50 [1] was 0.41 µM, the IC50 [2] was ≥ 50 µM and the IC50 [3] was 0.33 µM.
In the case of `C[C@]1(C(=O)Nc2ccc(F)cc2Cl)CC[C@@H](NC(=O)c2cnn3cccnc23)CC1` [Example 180, N-{cis-4-[(2-chloro-4-fluorophenyl)carbamoyl]-4-methylcyclohexyl}pyrazolo[1,5-a]pyrimidine-3-carboxamide], the IC50 [1] is reported as 7.6 µM, the IC50 [2] is reported as ≥ 50 µM and the IC50 [3] is reported as > 10 µM.
For `CNC(=O)c1[nH]cnc1C(=O)N[C@H]1CC[C@@](C)(C(=O)Nc2ccc(F)cc2Cl)CC1` [Example 181, N^4-{cis-4-[(2-chloro-4-fluorophenyl)carbamoyl]-4-methylcyclohexyl}-N^5-methyl-1H-imidazole-4,5-dicarboxamide], the IC50 [1] was 9.6 µM, the IC50 [2] was 24 µM and the IC50 [3] was > 10 µM.
`CNC(=O)c1nc[nH]c1C(=O)N[C@H]1CC[C@]2(CCN(c3ccc(F)cc3Cl)C2=O)CC1` [Example 182, N^5-[(cis)-2-(2-chloro-4-fluorophenyl)-1-oxo-2-azaspiro[4.5]dec-8-yl]-N^4-methyl-1H-imidazole-4,5-dicarboxamide] was tested, and the IC50 [1] was 0.19 µM, the IC50 [2] was ≥ 50 µM and the IC50 [3] was 1 µM.
With `CC1CN(C(=O)c2nc[nH]c2C(=O)N[C@H]2CC[C@@]3(CCN(c4ccc(F)cc4Cl)C3=O)CC2)CCS(=O)(=O)C1` (stereo partly drawn) [Example 183, N-[(trans)-2-(2-chloro-4-fluorophenyl)-1-oxo-2-azaspiro[4.5]dec-8-yl]-4-[(6-methyl-1,1-dioxido-1,4-thiazepan-4-yl)carbonyl]-1H-imidazole-5-carboxamide] the IC50 [1] was 0.21 µM, the IC50 [2] was ≥ 50 µM and the IC50 [3] was 0.4 µM.
For `CN1CC2(CCN(C(=O)c3nc[nH]c3C(=O)N[C@H]3CC[C@@]4(CCN(c5ccc(F)cc5Cl)C4=O)CC3)C2)C1` [Example 184, N-[(trans)-2-(2-chloro-4-fluorophenyl)-1-oxo-2-azaspiro[4.5]dec-8-yl]-4-[(2-methyl-2,6-diazaspiro[3.4]oct-6-yl)carbonyl]-1H-imidazole-5-carboxamide], the IC50 [1] was 0.021 µM, the IC50 [2] was ≥ 50 µM and the IC50 [3] was 0.0062 µM.
For `CN1CC2(C1)CN(C(=O)c1nc[nH]c1C(=O)N[C@H]1CC[C@@]3(CCN(c4ccc(F)cc4Cl)C3=O)CC1)C2` [Example 185, N-[(trans)-2-(2-chloro-4-fluorophenyl)-1-oxo-2-azaspiro[4.5]dec-8-yl]-4-[(6-methyl-2,6-diazaspiro[3.3]hept-2-yl)carbonyl]-1H-imidazole-5-carboxamide], the IC50 [1] was 0.0061 µM, the IC50 [2] was ≥ 50 µM and the IC50 [3] was 0.0017 µM.
With `NC(=O)c1nc[nH]c1C(=O)N[C@H]1CC[C@@]2(CCN(c3ccc(F)cc3Cl)C2=O)CC1` [Example 186, N^5-[(trans)-2-(2-chloro-4-fluorophenyl)-1-oxo-2-azaspiro[4.5]dec-8-yl]-1H-imidazole-4,5-dicarboxamide] the IC50 [1] was 0.0021 µM, the IC50 [2] was ≥ 50 µM and the IC50 [3] was 0.0074 µM.
`CN1CC(NC(=O)c2nc[nH]c2C(=O)N[C@H]2CC[C@@]3(CCN(c4ccc(F)cc4Cl)C3=O)CC2)C1` [Example 187, N^5-[(trans)-2-(2-chloro-4-fluorophenyl)-1-oxo-2-azaspiro[4.5]dec-8-yl]-N^4-(1-methylazetidin-3-yl)-1H-imidazole-4,5-dicarboxamide] was tested, and the IC50 [1] was 0.0059 µM, the IC50 [2] was ≥ 50 µM and the IC50 [3] was 0.0043 µM.
With `O=C(N[C@H]1CC[C@@]2(CCN(c3ccc(F)cc3Cl)C2=O)CC1)c1nc[nH]c1C(=O)NCC(F)(F)F` [Example 195, N^4-[(trans)-2-(2-chloro-4-fluorophenyl)-1-oxo-2-azaspiro[4.5]dec-8-yl]-N^5-(2,2,2-trifluoroethyl)-1H-imidazole-4,5-dicarboxamide] the IC50 [1] was 0.0013 µM, the IC50 [2] was ≥ 50 µM and the IC50 [3] was 0.0071 µM.
`CNC(=O)c1nc[nH]c1C(=O)N[C@H]1CC[C@@]2(CCN(c3cc(F)c(F)cc3Cl)C2=O)CC1` [Example 196, N^5-[(trans)-2-(2-chloro-4,5-difluorophenyl)-1-oxo-2-azaspiro[4.5]dec-8-yl]-N^4-methyl-1H-imidazole-4,5-dicarboxamide] showed an IC50 [1] of 0.00074 µM, an IC50 [2] of 35 µM and an IC50 [3] of 0.0024 µM.
`CCNC(=O)c1nc[nH]c1C(=O)N[C@H]1CC[C@@]2(CCN(c3cc(F)c(F)cc3Cl)C2=O)CC1` [Example 197, N^5-[(trans)-2-(2-chloro-4,5-difluorophenyl)-1-oxo-2-azaspiro[4.5]dec-8-yl]-N^4-ethyl-1H-imidazole-4,5-dicarboxamide] showed an IC50 [1] of 0.00074 µM, an IC50 [2] of 19 µM and an IC50 [3] of 0.0021 µM.
For `CC(C)NC(=O)c1nc[nH]c1C(=O)N[C@H]1CC[C@@]2(CCN(c3cc(F)c(F)cc3Cl)C2=O)CC1` [Example 198, N^5-[(trans)-2-(2-chloro-4,5-difluorophenyl)-1-oxo-2-azaspiro[4.5]dec-8-yl]-N^4-(propan-2-yl)-1H-imidazole-4,5-dicarboxamide], the IC50 [1] was 0.0017 µM, the IC50 [2] was 19 µM and the IC50 [3] was 0.0031 µM.
With `O=C(NC1CC1)c1nc[nH]c1C(=O)N[C@H]1CC[C@@]2(CCN(c3cc(F)c(F)cc3Cl)C2=O)CC1` [Example 199, N^5-[(trans)-2-(2-chloro-4,5-difluorophenyl)-1-oxo-2-azaspiro[4.5]dec-8-yl]-N^4-cyclopropyl-1H-imidazole-4,5-dicarboxamide] the IC50 [1] was 0.00098 µM, the IC50 [2] was 21 µM and the IC50 [3] was 0.003 µM.
For `O=C(N[C@H]1CC[C@@]2(CCN(c3cc(F)c(F)cc3Cl)C2=O)CC1)c1[nH]cnc1C(=O)N1CC(F)C1` [Example 200, N-[(trans)-2-(2-chloro-4,5-difluorophenyl)-1-oxo-2-azaspiro[4.5]dec-8-yl]-4-[(3-fluoroazetidin-1-yl)carbonyl]-1H-imidazole-5-carboxamide], the IC50 [1] was 0.00017 µM, the IC50 [2] was 30 µM and the IC50 [3] was 0.0026 µM.
Compound `O=C(NCC(F)(F)F)c1nc[nH]c1C(=O)N[C@H]1CC[C@@]2(CCN(c3cc(F)c(F)cc3Cl)C2=O)CC1` [Example 201, N^5-[(trans)-2-(2-chloro-4,5-difluorophenyl)-1-oxo-2-azaspiro[4.5]dec-8-yl]-N^4-(2,2,2-trifluoroethyl)-1H-imidazole-4,5-dicarboxamide] has an IC50 [1] of 0.00054 µM, an IC50 [2] of 22 µM and an IC50 [3] of 0.0022 µM.
`COCCNC(=O)c1nc[nH]c1C(=O)N[C@H]1CC[C@@]2(CCN(c3cc(F)c(F)cc3Cl)C2=O)CC1` [Example 202, N^5-[(trans)-2-(2-chloro-4,5-difluorophenyl)-1-oxo-2-azaspiro[4.5]dec-8-yl]-N^4-(2-methoxyethyl)-1H-imidazole-4,5-dicarboxamide] was tested, and the IC50 [1] was 0.00055 µM, the IC50 [2] was 39 µM and the IC50 [3] was 0.0029 µM.
For `CNC(=O)c1nc[nH]c1C(=O)N[C@H]1CC[C@H](C(=O)N(C)c2ccccc2C)CC1` [Example 203, N^4-methyl-N^5-{trans-4-[methyl(2-methylphenyl)carbamoyl]cyclohexyl}-1H-imidazole-4,5-dicarboxamide], the IC50 [1] was 25 µM, the IC50 [2] was ≥ 50 µM and the IC50 [3] was 0.48 µM.
Work on `O=C(N[C@H]1CC[C@H](C(=O)Nc2ccc(F)cc2Cl)CC1)c1cnn2ccccc12` [Example 205, N-{trans-4-[(2-chloro-4-fluorophenyl)carbamoyl]cyclohexyl}pyrazolo[1,5-a]pyridine-3-carboxamide] yielded an IC50 [1] of 0.5 µM, an IC50 [2] of 25 µM and an IC50 [3] of 2.5 µM.

— US20180148418A1, “AMIDO-SUBSTITUTED CYCLOHEXANE DERIVATIVES” (Bayer Pharma Aktiengesellschaft, priority 2015, published 2018)
